These results are taken from US10322136B2, “Composition for inhibiting growth or proliferation of chronic myelogenous leukemia cancer stem cells, and screening method therefor” (HIROSHIMA UNIVERSITY, priority 2015, dated 2019).

One series deals with Raptor-Ser863. Put plainly: Duolink in situ PLA, Raptor-Ser863 phosphorylation in LT-CML cancer stem cells. The format is cell-based, mouse. Conditions: 30 min; GlySar or cefadroxil 5 μM; rapamycin 100 nM. On the procedure:
To examine phosphorylation of Smad2, Smad3, p38MAPK, AMPK, and S6 ribosomal protein, and Foxo3a-Smad2 and Foxo3a-Smad3 interactions, Duolink® in situ PLA assay (Olink Bioscience) was used. LT-CML stem cells, ST-CML stem cells, CD48^+, MPP, and KLS^− CML cells that were freshly isolated from CML-affected mice, and LT-normal HSCs that were freshly isolated from healthy control littermates, were immediately fixed with 4% paraformaldehyde for 30 min.
For in vitro inhibitor experiments, LT-CML stem cells were incubated in 3% O2 at 37° C. for 30 min with vehicle (control; artificial gastric fluid solution (900 ml ddH2O containing 2.0 g of NaCl, 7 ml of conc. HCl and 3.2 g of pepsin)), 5 μM Ly364947 (TGF-β type I receptor kinase Alk5 inhibitor; Merck), 5 μM SB203580 (p38MAPK inhibitor; LC Laboratories), 5 μM GlySar (dipeptide transporter inhibitor; Sigma-Aldrich), 5 μM cefadroxil (dipeptide transporter inhibitor; Sigma-Aldrich), or 100 nM rapamycin (mTORC1 inhibitor; Cell Signaling Technologies). […]
The proximate binding of these antibodies was then detected using Duolink® in situ PLA system which employs a set of two secondary antibodies in which one is conjugated to a minus strand PLA probe and the other is conjugated to a plus strand PLA probe. […] The number of fluorescent foci per single cell was quantified using Duolink®Image Tool software (Olink Bioscience).

The next series deals with CML-KLS+ cells. Put plainly: Number of GFP/BCR-ABL1+ CML-KLS+ cells in BM of treated CML-affected mice. The format is in vivo, mouse. Conditions: daily for 30 days post transplantation. The procedure: Briefly, CML-affected mice received by oral gavage for 30 days post BM transplantation as described above. The number of GFP/BCR-ABL1+CML-KLS+ cells among total GFP/BCR-ABL1+CML cells isolated from BM MNCs acquired from the two hindlimbs of treated CML-affected mice was assessed by flow cytometry. Freshly purified GFP/BCR-ABL1^+CML-KLS^+ cells (3×10^4) were then serially transplanted into a second set of lethally irradiated congenic recipient mice along with 5×10^5 normal BM MNCs derived from C57BL/6 mice. Mouse survival and disease recurrence were monitored for 90 days.

The subject of the next series is normal HSCs. Conditions: mouse, in vivo. The source says: C57BL/6 (CD45.2 for the Ly5 locus) and congenic C57BL/6 (CD45.1 for the Ly5 locus; B6-Ly5.1) mice were purchased from Sankyo-Lab Service (Tsukuba, Japan). Lethally irradiated (9 Gy) C57BL/6 (CD45.2) recipient mice were reconstituted with 1×10^4 normal KLS^+ cells (HSCs) from congenic C57BL/6 (CD45.1) (B6-Ly5.1) mice in competition with 5×10^5 unfractionated BM MNCs derived from C57BL/6 (CD45.2) mice. Transplanted recipients then received vehicle or cefadroxil (36 mgKg^−1day^−1) from day 0 to 8 weeks post transplantation. Reconstitution of donor-derived cells (CD45.1) was monitored at 4 and 8 weeks post transplantation by flow cytometric analysis of peripheral blood mononuclear cells stained with monoclonal antibodies (mAbs) against CD45.2 (104)-FITC and CD45.1 (A20)-PE.

The test system of the next series is LT-CML cancer stem cells. Put plainly: Colony-forming assay, LT-CML cancer stem cells on OP-9 stromal cells. The format is cell-based, mouse. Conditions: 5 μM, 5 days, hypoxic (3% O2). The procedure:
LT-CML stem cells or LT-normal HSCs (1×10^3/plate) were co-cultured on OP-9 stromal cells for 5 days in the presence of either vehicle (control) or a dipeptide transporter inhibitor cefadroxil (5 μM). Cells were harvested, washed with PBS, and plated in semi-solid methylcellulose medium containing SCF, IL-3, IL-6 and erythropoietin (Methocult GF M3434; Stem Cell Technologies). After growth for 7 days in a humidified atmosphere containing 5% CO2 at 37° C., colony numbers were counted under a light microscope. For combination treatments of dipeptide transporter inhibitor+tyrosine kinase inhibitor (TKI), LT-CML cancer stem cells (3×10^3) were plated on OP-9 stromal cells in the presence of cefadroxil (5 μM). After 24 h in culture, the cells received additional DMSO or 1 μM IM (Axon Medchem) and were incubated for another 4 days (total 5 days). Treated cells were washed with PBS, transferred to a semi-solid medium, and colony formation after 7 days was assessed as described above.

Series [1] concerns human CD34+CD38-Lin- CML-LICs. As to the kind of experiment: Colony-forming capacity of human CML leukemia-initiating cells. The format is cell-based. The settings on record: 5 μM cefadroxil, 5 days, three patients. The source says: Viable BM MNCs from three human patients with chronic phase CML were purchased from All cells (#06-255, #06-620, and #147742, Alameda, Calif., USA). Documents confirming the informed consent of the patient are available in http://www.veritastk.co.jp/attached/3978/AllCells_BM_Informed_Consent_Form.pdf. These cells were stained with anti-CD34(8G12), anti-CD38(HIT2), anti-CD3(SK7), anti-CD16(3G8), anti-CD19(SJ25C1), anti-CD20(L27), anti-CD14(MpP9), and anti-CD56(NCAM16.2) antibodies (all purchased from BD Biosciences). A mixture of mAbs recognizing CD3, CD16, CD19, CD20, CD14 and CD56 was used to identify Lin^− cells, and CD34^+CD38^−Lin^− cells were purified. To determine the effects of treatment with cefadroxil (5 μM) alone, or with a combination of cefadroxil+IM (1 μM; Axon Medchem) or dasatinib (500 nM; LC laboratories), CD34^+CD38^−Lin^− cells were cultured on OP-9 stromal cells under hypoxic (3% O2) conditions. After harvesting and washing with PBS, the colony-forming ability of the most primitive human CML leukemia-initiating cells (LICs) was evaluated by culture in semi-solid methylcellulose medium containing SCF, GM-CSF, IL-3, IL-6, G-CSF, and erythropoietin (Methocult GF+ H4435; Stem Cell Technologies). After growth for 7 days at 37° C. under hypoxic (3% O2) conditions, colony numbers were counted under a light microscope.

Regarding `CC1=C(C(=O)O)N2C(=O)[C@@H](NC(=O)[C@H](N)c3ccc(O)cc3)[C@H]2SC1` [cefadroxil], in the series on Raptor-Ser863, the “phosphorylation of Raptor-Ser863” value is listed as “decreased phosphorylation”. Moreover, the “number of CML-KLS+ cells among GFP/BCR-ABL1+ CML cells from BM” value with CML-KLS+ cells is given as “significantly decreased”. In addition, in the series with normal HSCs, the “frequency of donor-derived CD45.1 MNCs in peripheral blood” value is “no increase”. The “colony-forming capacity of LT-CML cancer stem cells” value with LT-CML cancer stem cells was “significantly decreased”. Besides, the “colony-forming capacity of human CML-LIC samples” value in series [1] was “suppressed”.
